Patent US11850252B2, “Use of nor-ursodeoxycholic acid for reducing liver fat” (Dr. Falk Pharma GmbH, priority 2017, dated 2023)
“And” between values parts separate entries of the source, which are not always exact repeats. Equal entries are not always repeated. Where two headings read alike, the source gives them in different places.

Columns and labels:
[1] = tested on: Patients with a clinical diagnosis of non-alcoholic hepatic steatosis; assay: Liver stiffness according to Fibroscan or ARFI, phase II clinical trial; format: in vivo, human
Description: (§1) A double-blinded, randomized, placebo-controlled phase II clinical trial was conducted as described in the following.
(§2) Patients with a clinical diagnosis of non-alcoholic hepatic steatosis were randomized to a 12-week treatment period and a 4-week follow-up. Patients were divided into three groups. The first groups received 1,500 mg Nor-UDCA per day (6 capsules with 250 mg Nor-UDCA in each capsule). The second group received 500 mg Nor-UDCA per day (2 capsules with 250 mg Nor-UDCA in each capsule and 4 capsules with 250 mg placebo in each capsule). The third group received 6 capsules with 250 mg placebo in each capsule.
A) If available, Fibroscan examinations were performed at V1 or within 4 weeks before and 1 week after V1 and at V6. For the purpose of this measurement, patients should be fasting.
Fibroscan is a non-invasive device (Echosens, France) for the detection steatosis hepatis by vibration-controlled transient elastography. It consists of a vibrator device coupled to an ultrasound system. The signal from this device allows a calculation of stiffness of scanned tissue, and thereby an assessment of the extent of disease. Results of liver elasticity are to be expressed by stiffness (kPa) and success rate (%).
During measurement, an ultrafast pulse echosequence is emitted (pulse repetition frequency of 6 kHz) during the propagation of the controlled shear wave. The acquisition lasts only 80 ms and strains induced in the liver by the propagation of the shear wave is measured using standard autocorrelation approach between successive ultrasound lines. Stiffness values were obtained in kPA.
Liver stiffness was measured using either of two probes (M-probe or XL-probe) and documented with the following respective thresholds for different stages:
Stage 0/1 (i.e. <stage 2): <7.0 kPa (threshold)
Stage 0/1 (i.e. <stage 2): <6.2 kPa (threshold)
B) If available, Acoustic radiation force impulse imaging (ARFI) examinations were performed at V1 or within 4 weeks before and 1 week after V1 and at V6. ARFI measurements were documented with the following thresholds for different stages:
Stage 0/1 (i.e. <stage 2): <1.34 m/s (threshold)

[2] = tested on: experimental alcoholic steatohepatitis; details: preventive administration; compared to UDCA; Belonovskaya et al. (2013); cited from earlier work
[3] = tested on: Patients with a clinical diagnosis of non-alcoholic hepatic steatosis; assay: Cytokeratin 18 (M30, M65 fragments) in the course of the study; format: in vivo, human; details: for mean value of Cytokeratin 18 (M30 fragment) / mean value of Cytokeratin 18 (M65 fragment): V2 baseline
Excerpt: In another embodiment, the patient to be treated has a serum level of cytokeratin 18 (M65) of less than 750 U/ml, or less than 600 U/ml, or less than 500 U/ml, or less than 400 U/ml, or less than 300 U/ml or even less than 250 U/ml. The level of the M65 fragment of cytokeratin-18 can be determined by known methods, e.g. by an enzyme-linked immunosorbent assay (ELISA)
In another embodiment, the patient to be treated has a serum level of cytokeratin 18 (M30) of less than 500 U/ml, or less than 400 U/ml, or less than 300 U/ml, or less than 200 U/ml, or less than 150 U/ml. The level of the M30 fragment of cytokeratin-18 can be determined by known methods, e.g. by an ELISA.
as §1, §2

[4] = tested on: mouse models of obesity and steatosis; details: cited from earlier work
[5] = tested on: acyl coenzyme A synthetase; details: in contrast to UDCA; cited from earlier work
[6] = tested on: Patients with a clinical diagnosis of non-alcoholic hepatic steatosis; assay: Ultrasound examination of the liver (steatosis hepatis grade), phase II clinical trial; format: in vivo, human
Description: as §1, §2
The ultrasound examination was performed at V1 or within 4 weeks before and 1 week after V1 and at V6.
The liver was scored by the most affected area.

[7] = tested on: Patients with a clinical diagnosis of non-alcoholic hepatic steatosis; assay: Hepatic fat fraction measured by MRI and/or MRS, phase II clinical trial; format: in vivo, human
Description: as §1, §2
If available, magnetic resonance imaging/spectroscopy (MRI/MRS) examinations were performed at V1 or within 4 weeks before and 1 week after V1 and at V6. Both, MRI and MRS are MR-based methods to separate the liver signal into its water and fat components. The resonance frequencies corresponding to protons in water and to the dominant protons in fat are distinct, and can be quantified directly from the spectral tracing.
The following equation was to be used to calculate the hepatic fat fraction derived from chemical shift imaging (CSI) data: CSI hepatic fat fractionunoorrected=SIin phase−SIopposed phase/2×SIin phase
To account for signal intensity differences not dependent of the fat content, a region of interest was also placed in the spleen in the same image as the liver measurements were performed. To calculate the signal-intensity corrected (using the spleen measurements) hepatic fat fraction, the equation above will be adopted as follows: CSI hepatic fat fractionspleen correction=(SIin phase liver/SIspleen)−(SIopposed phase liver/SIspleen)/2×(SIin phase liver/SIspleen)
If the calculations lead to negative mean hepatic fat fraction values, these negative values were considered as a fat fraction of 0, because a negative value is not possible.
MRS were performed at 1.5 or 3.0 Tesla to determine hepatic triglyceride content (in %).

[8] = N500 (500 mg Nor-UDCA per day), V1 screening
[9] = N500 (500 mg Nor-UDCA per day), V6-LOCF week 12
[10] = N1500 (1,500 mg Nor-UDCA per day), V1 screening
[11] = N1500 (1,500 mg Nor-UDCA per day), V6-LOCF week 12
[12] = N500 (500 mg Nor-UDCA per day), V6 week 12
[13] = N1500 (1,500 mg Nor-UDCA per day), V6 week 12

With `CC(CC(=O)O)[C@H]1CCC2[C@H]3C(CC[C@@]21C)[C@@]1(C)CCC(O)C[C@H]1C[C@@H]3O` (stereo partly drawn) [Nor-UDCA, 24-nor-ursodeoxycholic acid] the “Number (%) of patients, liver stiffness Stage 0/1” value [1, 8] was 62.5%, the “Number (%) of patients, liver stiffness Stage = 4” value [1, 8] was 12.5% and the “Number (%) of patients, liver stiffness Stage ≥2” value [1, 8] was 14.6%. For the same compound, the “Number (%) of patients, liver stiffness Stage ≥3” value [1, 8] was 10.4%, the “Number (%) of patients, liver stiffness Stage 0/1” value [1, 9] was 58.3% and the “Number (%) of patients, liver stiffness Stage = 4” value [1, 9] was 10.4%. For the same compound, the “Number (%) of patients, liver stiffness Stage ≥2” value [1, 9] was 22.9%, the “Number (%) of patients, liver stiffness Stage ≥3” value [1, 9] was 8.3% and the “Number (%) of patients, liver stiffness Stage 0/1” value [1, 10] was 55.6%. For the same compound, the “Number (%) of patients, liver stiffness Stage = 4” value [1, 10] was 19.4%, the “Number (%) of patients, liver stiffness Stage ≥2” value [1, 10] was 17.6% and the “Number (%) of patients, liver stiffness Stage ≥3” value [1, 10] was 8.3%. The “Number (%) of patients, liver stiffness Stage 0/1” value [1, 11] was 67.5%, the “Number (%) of patients, liver stiffness Stage = 4” value [1, 11] was 15.0% and the “Number (%) of patients, liver stiffness Stage ≥2” value [1, 11] was 12.5%. For the same compound, the “Number (%) of patients, liver stiffness Stage ≥3” value [1, 11] was 5.0%, the “percentage of patients with stage 0/1 liver stiffness, change in the course of the study” value ([1]; group receiving 500 mg Nor-UDCA) was “decreased” and the “preventing the accumulation of triglycerides in the liver” value [2] was “most effective”. For the same compound, the “change of mean Cytokeratin 18 (M30 fragment) during the study” value ([3]; N500 (500 mg/day)) was −34.4 U/I, the “change of mean Cytokeratin 18 (M65 fragment) during the study” value ([3]; N500 (500 mg/day)) was −106.0 U/I and the “mean value of Cytokeratin 18 (M30 fragment)” value ([3]; N500 (500 mg/day)) was 389.4 U/I. The “mean value of Cytokeratin 18 (M65 fragment)” value ([3]; N500 (500 mg/day)) was 590.2 U/I, the “change of mean Cytokeratin 18 (M30 fragment) during the study” value ([3]; N1500 (1,500 mg/day)) was −30.3 U/I and the “change of mean Cytokeratin 18 (M65 fragment) during the study” value ([3]; N1500 (1,500 mg/day)) was −80.6 U/I. For the same compound, the “mean value of Cytokeratin 18 (M30 fragment)” value ([3]; N1500 (1,500 mg/day)) was 333.7 U/I, the “mean value of Cytokeratin 18 (M65 fragment)” value ([3]; N1500 (1,500 mg/day)) was 519.9 U/I and the “reduction in ALT” value ([4]; mouse model of obesity and steatosis, Steinacher et al. (2015)) was “significant reduction”. For the same compound, the “reduction in ALT” value ([4]; mouse models of obesity and steatosis, Steinacher et al. (2017)) was “considerable reduction”, the “N-acyl amidation with taurine or glycine” value [5] was “only minimal” and the “substrate for acyl coenzyme A synthetase” value [5] was “poor substrate”. For the same compound, the “Number (%) of patients, steatosis hepatis grade Mild steatosis (S1)” value (from here on “Number (%) of patients … (S1)”) [6, 8] was 21.2%, the “Number (%) of patients, steatosis hepatis grade Moderate steatosis (S2)” value (shortened to “Number (%) of patients … (S2)”) [6, 8] was 45.5% and the “Number (%) of patients, steatosis hepatis grade No/minimal steatosis (S0)” value [6, 8] was 6.1%. For the same compound, the “Number (%) of patients, steatosis hepatis grade Severe steatosis (S3)” value (“Number (%) of patients … (S3)” below) [6, 8] was 27.3%, the “Number (%) of patients … (S1)” value [6, 12] was 28.8% and the “Number (%) of patients … (S2)” value [6, 12] was 51.5%. For the same compound, the “Number (%) of patients, steatosis hepatis grade No/minimal steatosis (S0)” value [6, 12] was 3.0%, the “Number (%) of patients … (S3)” value [6, 12] was 16.7% and the “Number (%) of patients … (S1)” value [6, 10] was 26.6%. The “Number (%) of patients … (S2)” value [6, 10] was 53.1%, the “Number (%) of patients, steatosis hepatis grade No/minimal steatosis (S0)” value [6, 10] was 0.0% and the “Number (%) of patients … (S3)” value [6, 10] was 20.3%. The “Number (%) of patients … (S1)” value [6, 13] was 26.6%, the “Number (%) of patients … (S2)” value [6, 13] was 62.5% and the “Number (%) of patients, steatosis hepatis grade No/minimal steatosis (S0)” value [6, 13] was 0.0%. The “Number (%) of patients … (S3)” value [6, 13] was 10.9%, the “Hepatic fat fraction measured by MRI and/or MRS, Mean ± SD” value (“Hepatic fat fraction … Mean ± SD” below) [7, 8] was 14.6 ± 14.5% and the “Hepatic fat fraction … Mean ± SD” value [7, 9] was 15.5 ± 13.5%. For the same compound, the “Hepatic fat fraction … Mean ± SD” value [7, 10] was 21.3% and 21.3 ± 15.4%, the “Hepatic fat fraction … Mean ± SD” value [7, 11] was 16.3% and 16.3 ± 14.4% and the “decrease in the hepatic fat fraction” value ([7]; group receiving 500 mg) was “no substantial decrease”.
